pIC50: −log10 of the molar value.
System: LG0567-F671-PDC KRAS tumor spheroid viability
Assay: Anticancer human tumor LG0567-F671-PDC patient-derived lung adenocarcinoma cell line growth inhibition [KRAS2]
Details: spheroids with HUVEC and MSC; for pIC50: curve of first compound; for viability, T/C: stronger effect = lower value
Outline: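 KRAS-mutant tumor cells were grown as spheroids with HUVEC endothelial cells and human MSCs as stroma. Targeted agents were tested alone and with KRAS pathway inhibitors. Doses started at or near clinical Cmax, or 10 microM, descending half-log.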

[1] = second compound 0.1 µM, first compound 0.0316 µM
[2] = second compound 0.1 µM, first compound 0.1 µM
[3] = second compound 0.1 µM, first compound 0.316 µM
[4] = second compound 0.1 µM, first compound 1 µM
[5] = second compound 0.1 µM, first compound 3.16 µM
[6] = second compound 0.1 µM, first compound 10 µM
[7] = second compound 0.316 µM, first compound 0.0316 µM
[8] = second compound 0.316 µM, first compound 0.1 µM
[9] = second compound 0.316 µM, first compound 0.316 µM
[10] = second compound 0.316 µM, first compound 1 µM
[11] = second compound 0.316 µM, first compound 3.16 µM
[12] = second compound 0.316 µM, first compound 10 µM
[13] = second compound 1 µM, first compound 0.0316 µM
[14] = second compound 1 µM, first compound 0.1 µM
[15] = second compound 1 µM, first compound 0.316 µM
[16] = second compound 1 µM, first compound 1 µM
[17] = second compound 1 µM, first compound 3.16 µM
[18] = second compound 1 µM, first compound 10 µM
[19] = second compound 3.16 µM, first compound 0.0316 µM
[20] = second compound 3.16 µM, first compound 0.1 µM
[21] = second compound 3.16 µM, first compound 0.316 µM
[22] = second compound 3.16 µM, first compound 1 µM
[23] = second compound 3.16 µM, first compound 3.16 µM
[24] = second compound 3.16 µM, first compound 10 µM
[25] = second compound 10 µM, first compound 0.0316 µM
[26] = second compound 10 µM, first compound 0.1 µM
[27] = second compound 10 µM, first compound 0.316 µM
[28] = second compound 10 µM, first compound 1 µM
[29] = second compound 10 µM, first compound 3.16 µM
[30] = second compound 10 µM, first compound 10 µM
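Further: drug exposure lasted seven days after spheroids formed for three days.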
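Wherever viability, T/C is given: 100% = DMSO vehicle control viability.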

Cn1nccc1Nc1nccc(-c2cc3c(s2)C(C)(C)N(CCN2CCOCC2)C3=O)n1 + CC1OCC2(CCN(c3cnc(Sc4ccnc(N)c4Cl)c(N)n3)CC2)C1N
pIC50 (second compound 0.1 µM): 6.74 | pIC50 (second compound 0.316 µM): > 7.50 | pIC50 (second compound 1 µM): > 7.50 | pIC50 (second compound 3.16 µM): > 7.50 | pIC50 (second compound 10 µM): > 7.50 | viability, T/C [1]: 60.6% | viability, T/C [2]: 52% | viability, T/C [3]: 46.3% | viability, T/C [4]: 38.9% | viability, T/C [5]: 24.1% | viability, T/C [6]: 23.4% | viability, T/C [7]: 36.8% | viability, T/C [8]: 35.9% | viability, T/C [9]: 29.7% | viability, T/C [10]: 24.3% | viability, T/C [11]: 21.5% | viability, T/C [12]: 18.2% | viability, T/C [13]: 32.6% | viability, T/C [14]: 29.5% | viability, T/C [15]: 21% | viability, T/C [16]: 18.3% | viability, T/C [17]: 16.4% | viability, T/C [18]: 12.4% | viability, T/C [19]: 18.6% | viability, T/C [20]: 19.6% | viability, T/C [21]: 17.9% | viability, T/C [22]: 9.57% | viability, T/C [23]: 7.17% | viability, T/C [24]: 10.8% | viability, T/C [25]: 10.2% | viability, T/C [26]: 10.7% | viability, T/C [27]: 10.5% | viability, T/C [28]: 4.14% | viability, T/C [29]: 3.55% | viability, T/C [30]: 5.13%

CC1OCC2(CCN(c3cnc(Sc4ccnc(N)c4Cl)c(N)n3)CC2)C1N (stereo not given) + C=CC(=O)N1CCN(c2nc(=O)n(-c3c(C)ccnc3C(C)C)c3nc(-c4c(O)cccc4F)c(F)cc23)C(C)C1
pIC50 (second compound 0.1 µM): > 7.50 | pIC50 (second compound 0.316 µM): > 7.50 | pIC50 (second compound 1 µM): > 7.50 | pIC50 (second compound 3.16 µM): > 7.50 | pIC50 (second compound 10 µM): > 7.50 | viability, T/C [1]: 17.5% | viability, T/C [2]: 13.5% | viability, T/C [3]: 8.87% | viability, T/C [4]: 5.62% | viability, T/C [5]: 3.47% | viability, T/C [6]: 2.54% | viability, T/C [7]: 17.9% | viability, T/C [8]: 13.2% | viability, T/C [9]: 8.99% | viability, T/C [10]: 4.26% | viability, T/C [11]: 2.66% | viability, T/C [12]: 2.19% | viability, T/C [13]: 16.2% | viability, T/C [14]: 15.9% | viability, T/C [15]: 10.2% | viability, T/C [16]: 4.27% | viability, T/C [17]: 5.62% | viability, T/C [18]: 2.9% | viability, T/C [19]: 16.6% | viability, T/C [20]: 11.6% | viability, T/C [21]: 7.63% | viability, T/C [22]: 4% | viability, T/C [23]: 1.9% | viability, T/C [24]: 3.71% | viability, T/C [25]: 17.6% | viability, T/C [26]: 13.8% | viability, T/C [27]: 8.61% | viability, T/C [28]: 4.3% | viability, T/C [29]: 3.58% | viability, T/C [30]: 3.08%

O=C(c1cc(Cc2n[nH]c(=O)c3ccccc23)ccc1F)N1CCN(C(=O)C2CC2)CC1 + CNCc1ccccc1-c1csc(C(C)Nc2nc(C)nc3cc(OC)c(OC)cc23)c1
pIC50 (second compound 0.1 µM): < 5.00 | pIC50 (second compound 0.316 µM): < 5.00 | pIC50 (second compound 1 µM): < 5.00 | pIC50 (second compound 3.16 µM): 5.44 | pIC50 (second compound 10 µM): > 7.50 | viability, T/C [1]: 88.1% | viability, T/C [2]: 95.4% | viability, T/C [3]: 80.6% | viability, T/C [4]: 79.5% | viability, T/C [5]: 74.1% | viability, T/C [6]: 81.6% | viability, T/C [7]: 69.6% | viability, T/C [8]: 58.8% | viability, T/C [9]: 63.9% | viability, T/C [10]: 52.8% | viability, T/C [11]: 61.5% | viability, T/C [12]: 60.5% | viability, T/C [13]: 78.1% | viability, T/C [14]: 72.2% | viability, T/C [15]: 68.3% | viability, T/C [16]: 71.5% | viability, T/C [17]: 67% | viability, T/C [18]: 64.4% | viability, T/C [19]: 46.5% | viability, T/C [20]: 80% | viability, T/C [21]: 84.2% | viability, T/C [22]: 0.72% | viability, T/C [23]: 69.7% | viability, T/C [24]: 0.31% | viability, T/C [25]: 0.22% | viability, T/C [26]: 0.82% | viability, T/C [27]: 0.19% | viability, T/C [28]: 0.61% | viability, T/C [29]: 0.17% | viability, T/C [30]: 0.2%

CC(=O)Nc1cccc(-n2c(=O)n(C3CC3)c(=O)c3c(Nc4ccc(I)cc4F)n(C)c(=O)c(C)c32)c1 + COc1cc2nc(C)nc(NC(C)c3cc(N)cc(C(F)(F)F)c3)c2cc1OC1CCOC1
pIC50 (second compound 0.1 µM): 9.00 | pIC50 (second compound 0.316 µM): 9.52 | pIC50 (second compound 1 µM): > 10.00 | pIC50 (second compound 3.16 µM): > 10.00 | pIC50 (second compound 10 µM): > 10.00 | viability, T/C (second compound 0.1 µM, first compound 0.0001 µM): 69.8% | viability, T/C (second compound 0.1 µM, first compound 0.000316 µM): 52.6% | viability, T/C (second compound 0.1 µM, first compound 0.001 µM): 53% | viability, T/C (second compound 0.1 µM, first compound 0.00316 µM): 39.9% | viability, T/C (second compound 0.1 µM, first compound 0.01 µM): 25.9% | viability, T/C [1]: 8.34% | viability, T/C (second compound 0.316 µM, first compound 0.0001 µM): 60.9% | viability, T/C (second compound 0.316 µM, first compound 0.000316 µM): 48.7% | viability, T/C (second compound 0.316 µM, first compound 0.001 µM): 36.3% | viability, T/C (second compound 0.316 µM, first compound 0.00316 µM): 33.2% | viability, T/C (second compound 0.316 µM, first compound 0.01 µM): 22.7% | viability, T/C [7]: 11.8% | viability, T/C (second compound 1 µM, first compound 0.0001 µM): 45.4% | viability, T/C (second compound 1 µM, first compound 0.000316 µM): 43% | viability, T/C (second compound 1 µM, first compound 0.001 µM): 39.7% | viability, T/C (second compound 1 µM, first compound 0.00316 µM): 31.2% | viability, T/C (second compound 1 µM, first compound 0.01 µM): 26.8% | viability, T/C [13]: 7.58% | viability, T/C (second compound 3.16 µM, first compound 0.0001 µM): 48.6% | viability, T/C (second compound 3.16 µM, first compound 0.000316 µM): 43.7% | viability, T/C (second compound 3.16 µM, first compound 0.001 µM): 34% | viability, T/C (second compound 3.16 µM, first compound 0.00316 µM): 19.2% | viability, T/C (second compound 3.16 µM, first compound 0.01 µM): 17.1% | viability, T/C [19]: 6.02% | viability, T/C (second compound 10 µM, first compound 0.0001 µM): 41.3% | viability, T/C (second compound 10 µM, first compound 0.000316 µM): 36.6% | viability, T/C (second compound 10 µM, first compound 0.001 µM): 27.2% | viability, T/C (second compound 10 µM, first compound 0.00316 µM): 13.4% | viability, T/C (second compound 10 µM, first compound 0.01 µM): 5.95% | viability, T/C [25]: 1.33%

COc1cc(Nc2ncc3c(n2)-c2ccc(Cl)cc2C(c2c(F)cccc2OC)=NC3)ccc1C(=O)O + CNCc1ccccc1-c1csc(C(C)Nc2nc(C)nc3cc(OC)c(OC)cc23)c1
pIC50 (second compound 0.1 µM): 5.52 | pIC50 (second compound 0.316 µM): 6.46 | pIC50 (second compound 1 µM): 6.58 | pIC50 (second compound 3.16 µM): > 7.50 | pIC50 (second compound 10 µM): > 7.50 | viability, T/C [1]: 72% | viability, T/C [2]: 62% | viability, T/C [3]: 58.1% | viability, T/C [4]: 60.6% | viability, T/C [5]: 51.4% | viability, T/C [6]: 37.8% | viability, T/C [7]: 56.3% | viability, T/C [8]: 54.3% | viability, T/C [9]: 48.2% | viability, T/C [10]: 45.6% | viability, T/C [11]: 42.4% | viability, T/C [12]: 32% | viability, T/C [13]: 52.4% | viability, T/C [14]: 53.4% | viability, T/C [15]: 47% | viability, T/C [16]: 48.2% | viability, T/C [17]: 37.8% | viability, T/C [18]: 29% | viability, T/C [19]: 12.8% | viability, T/C [20]: 16.8% | viability, T/C [21]: 14% | viability, T/C [22]: 3.3% | viability, T/C [23]: 0.97% | viability, T/C [24]: 1.05% | viability, T/C [25]: 0.9% | viability, T/C [26]: 0.24% | viability, T/C [27]: 0.13% | viability, T/C [28]: 0.43% | viability, T/C [29]: 0.12% | viability, T/C [30]: 1.01%
